Common to all, as to type: cell-based
The test system of test [1] is methicillin-resistant Staphylococus aureus (MRSA). Briefly: MIC, NCCLS microdilution broth procedure, MRSA. As to the method: (§1) The following table identifies specific species of compounds according to the present invention and information concerning their associated antibacterial activity. The antibacterial activity of a compound in accordance with the present invention, chloro-biphenyl-rearranged norvacomycin (B), was tested and compared to unmodified vancomycin (Van) and norvancoycin (Nor). MIC (minimum inhibitory concentration) was measured according to NCCLS standards using the microdilution broth prodcedure. Serial dilutions of the compounds were placed in a 96-well microplate containing Mueller-Hinton medium. Based on absorbance of 600 nm, diluted overnight cultures were placed in the wells at a final concentration of 5×10^5 cfu/mL. The plate was then placed in a culture box at 35° C. The next day, MIC was determined by visual observation of the plates. The glycopeptides were tested against a variety of strains well known in the art for such testing, including methicillin-susceptible Staphylococus aureus (MSSA), methicillin-susceptible Staphylococus epidermidis (MSSE), methicillin-resistant Staphylococus aureus (MRSA), methicllin-resistant Staphylococus epidermidis (MRSE), and glycopeptide-intermediate Staphylococus aureus (GISA). Results are shown in the Table 1 as minimum inhibitory concentration (MIC) in units of μg/ml: […]
(Dilution methods test growth across graded concentrations, often in twofold steps.)

Test [2] concerns glycopeptide-intermediate Staphylococus aureus (GISA) (D). The experiment in a line: MIC, NCCLS microdilution broth procedure, GISA (D). As to the method: as §1
The subject of test [3] is methicllin-resistant Staphylococus epidermidis (MRSE). Briefly: MIC, NCCLS microdilution broth procedure, MRSE. As to the method: as §1
The test system of test [4] is methicillin-susceptible Staphylococus aureus (MSSA). The experiment in a line: MIC, NCCLS microdilution broth procedure, MSSA. As to the method:
as §1

The test system of test [5] is glycopeptide-intermediate Staphylococus aureus (GISA) (V). Briefly: MIC, NCCLS microdilution broth procedure, GISA (V). The protocol:
as §1

Test [6] deals with methicillin-susceptible Staphylococus epidermidis (MSSE). Briefly: MIC, NCCLS microdilution broth procedure, MSSE. As to the method: as §1

≈ marks a conversion by molar mass, not a printed value.

Results on two molecules are retold here after patent US7368422B2, “Semi-synthetic rearranged vancomycin/desmethyl-vancomycin-based glycopeptides with antibiotic activity” (Novartis Vaccines and Diagnostics Inc., priority 2005, dated 2008).

With `CC(C)C[C@@H](N)C(=O)N[C@H]1C(=O)N[C@@H](CC(N)=O)C(=O)N[C@H]2C(=O)N[C@H]3C(=O)N[C@H](C(=O)N[C@H](C(=O)O)c4cc(O)cc(O)c4-c4cc3ccc4O)[C@H](O)c3ccc(c(Cl)c3)Oc3cc2cc(c3O[C@@H]2O[C@H](CO)[C@@H](O)[C@H](O)[C@H]2O[C@H]2C[C@](C)(N)[C@H](O)[C@H](C)O2)Oc2ccc(cc2Cl)[C@H]1O` [Nor, norvancoycin], the “minimum inhibitory concentration (MIC)” value in test [1] (MRSA strain # 134) came to 2 µg/mL (≈ 1.39 µM); in test [1] (MRSA strain # 143), 2 µg/mL (≈ 1.39 µM); in test [2] (GISA (D) strain # 68), 4 µg/mL (≈ 2.79 µM); in test [2] (GISA (D) strain # 143) it was 4 µg/mL (≈ 2.79 µM); in test [3] (MRSE strain # 24), 2 µg/mL (≈ 1.39 µM); in test [3] (MRSE strain # 25) it was 2 µg/mL (≈ 1.39 µM). Also, the “minimum inhibitory concentration (MIC)” value turned out to be 2 µg/mL (≈ 1.39 µM) in test [3] (MRSE strain # 26); 2 µg/mL (≈ 1.39 µM) in test [4] (MSSA strain # 68); 2 µg/mL (≈ 1.39 µM) in test [4] (MSSA strain # 83); 4 µg/mL (≈ 2.79 µM) in test [5] (GISA (V) strain # 68); 8 µg/mL (≈ 5.57 µM) in test [5] (GISA (V) strain # 143); 2 µg/mL (≈ 1.39 µM) in test [6] (MSSE strain # 3). For the same molecule, the “minimum inhibitory concentration (MIC)” value in test [6] (MSSE strain # 10) amounted to 2 µg/mL (≈ 1.39 µM).
Consider `CN[C@H](CC(C)C)C(=O)N[C@H]1C(=O)N[C@@H](CC(N)=O)C(=O)N[C@H]2C(=O)N[C@H]3C(=O)N[C@H](C(=O)N[C@H](C(=O)O)c4cc(O)cc(O)c4-c4cc3ccc4O)[C@H](O)c3ccc(c(Cl)c3)Oc3cc2cc(c3O[C@@H]2O[C@H](CO)[C@@H](O)[C@H](O)[C@H]2O[C@H]2C[C@](C)(N)[C@H](O)[C@H](C)O2)Oc2ccc(cc2Cl)[C@H]1O` [Van, vancomycin], for which the “minimum inhibitory concentration (MIC)” value is 2 µg/mL (≈ 1.38 µM) in test [1] (MRSA strain # 134); 2 µg/mL (≈ 1.38 µM) in test [1] (MRSA strain # 143); 8 µg/mL (≈ 5.52 µM) in test [2] (GISA (D) strain # 68); 4 µg/mL (≈ 2.76 µM) in test [2] (GISA (D) strain # 143); 2 µg/mL (≈ 1.38 µM) in test [3] (MRSE strain # 24); 2 µg/mL (≈ 1.38 µM) in test [3] (MRSE strain # 25). In addition, the “minimum inhibitory concentration (MIC)” value in test [3] (MRSE strain # 26) came to 2 µg/mL (≈ 1.38 µM); in test [4] (MSSA strain # 68), 2 µg/mL (≈ 1.38 µM); in test [4] (MSSA strain # 83) it was 2 µg/mL (≈ 1.38 µM); in test [5] (GISA (V) strain # 68), 8 µg/mL (≈ 5.52 µM); in test [5] (GISA (V) strain # 143), 8 µg/mL (≈ 5.52 µM); in test [6] (MSSE strain # 3), 2 µg/mL (≈ 1.38 µM). In addition, the “minimum inhibitory concentration (MIC)” value in test [6] (MSSE strain # 10) came out at 2 µg/mL (≈ 1.38 µM).
